From publication PMC11758220, “Identification of a Privileged Scaffold for Inhibition of Sterol Transport Proteins through the Synthesis and Ring Distortion of Diverse, Pseudo-Natural Products” (ACS Central Science, 2025)

How the values were obtained:
ORP2 = target: T1, ORP2 (Homo sapiens, UniProt Q9H1P3); assay: Fluorescence polarisation (FP) competition with NBD-cholesterol, ORP2; format: binding; conditions: for IC50: mean of three experiments run in technical duplicates; for inhibition at 10 µM / ORP2 (FP) inhibition: single dose, Dose = 10 µM
T1 construct: ORP2(49-480); host or cells: E. coli BL21(DE3)
T1 sequence (Q9H1P3 49-480): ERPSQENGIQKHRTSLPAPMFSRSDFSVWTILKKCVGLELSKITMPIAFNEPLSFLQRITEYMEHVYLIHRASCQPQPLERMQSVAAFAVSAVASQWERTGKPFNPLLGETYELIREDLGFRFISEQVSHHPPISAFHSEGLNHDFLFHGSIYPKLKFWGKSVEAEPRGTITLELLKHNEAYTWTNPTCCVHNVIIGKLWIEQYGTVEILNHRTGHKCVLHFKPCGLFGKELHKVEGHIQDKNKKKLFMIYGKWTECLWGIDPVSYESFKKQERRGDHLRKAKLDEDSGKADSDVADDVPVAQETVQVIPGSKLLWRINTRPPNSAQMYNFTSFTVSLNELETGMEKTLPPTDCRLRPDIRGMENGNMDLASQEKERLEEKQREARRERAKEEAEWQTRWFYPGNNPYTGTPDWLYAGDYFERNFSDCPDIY
Description: (§1) Protein expression constructs
(§2) Human ASTER domains of Aster-A(359-547), -B(364-552) and -C(318-504) were subcloned into a pGEX-6p-2rbs vector, thus introducing the cloning artifact ‘GPLGS’.3 The pGEX-6P-1-GST-OSBP(377- […]
(§3) a gift from James H. Hurley (University of California).4 The pHIS_2His6_Thrombin_STARD4(2-205;C75S) plasmid was a gift from Young Jun Im (Chonnam National University).5 STARD5A was a gift from Nicola Burgess-Brown (Addgene plasmid #42392; http://n2t.net/addgene:42392; […]
(§4) Protein expression and purification […]
(§5) vectors including an N-terminal PreScission-cleavable glutathione S-transferase (GST)-tag were expressed in Escherichia coli (E. coli) OverExpress C41 in Terrific Broth (TB) medium for 16 h at 18 °C after the induction with 0.1 mM isopropyl β-D-1-thiogalactopyranoside (IPTG). Cells were harvested at 3500 × g for 15 minutes and lysed by sonication in buffer containing 50 mM HEPES pH 7.5, 300 mM NaCl, 10 %v/v glycerol, 5 mM dithiothreitol (DTT), 0.1 %v/v Triton X-100 and protease inhibitor mix HP plus (Serva). The lysate was purified by affinity chromatography on a GSTrap FF column (Cytiva) using an ÄKTA Start (Cytiva) in buffer containing 50 mM HEPES pH 7.5, 300 mM NaCl, 10 %v/v glycerol, 5 mM DTT and 0.01 %v/v Triton X-100. The GST-tag was cleaved overnight on the column at 4 °C. The Aster sterol binding domains were further purified by size-exclusion chromatography (SEC) on a HiLoad 16/600 Superdex 75 pg (Cytiva) in buffer containing 20 mM HEPES pH 7.5, 300 mM NaCl, 10 %v/v […]
(§6) STARD5(6-213) harboring an N-terminal His6-Tag were expressed in E. coli BL21(DE3) in Luria-Bertani Broth (LB) medium for approximately 16 h at 18 °C after induction with 0.15 mM IPTG. Cells were harvested at 3500 × g for 15 minutes and lysed by sonication in buffer containing 50 mM HEPES pH 7.5, 150 mM NaCl, 5 %v/v glycerol, 5 mM DTT, 0.1 %v/v Triton X -100 and ethylenediaminetetraacetic acid (EDTA)-free protease inhibitor cocktail (Sigma-Aldrich). The cleared lysate was purified by affinity chromatography on a Ni-NTA Superflow Cartridge (Qiagen) using an ÄKTA Start (Cytiva) in buffer containing 50 mM HEPES pH 7.5, 150 mM NaCl, 5 %v/v glycerol, 5 mM DTT. START domains were eluted by using elution buffer containing 50 mM HEPES pH 7.5, 150 mM NaCl, 5 %v/v glycerol, 5 mM DTT and 500 mM imidazole. Proteins were further purified by SEC on a HiLoad 16/600 Superdex 75 pg (Cytiva) in buffer containing 20 mM HEPES pH 7.5, 150 mM NaCl, 5 %v/v glycerol and 2 mM DTT.
(§7) The ORP domain of human OSBP(377-807) in the pGEX-6p-1 vector with an N-terminal PreScission-cleavable GST-tag was expressed in E. coli OverExpress C41 in LB medium for 16 h at 18 °C after induction with 0.1 mM IPTG. Cells were harvested at 3500 × g for 15 minutes and lysed by sonication in buffer containing 20 mM HEPES pH 7.5, 300 mM NaCl, 10 %v/v glycerol, 5 mM DTT, 0.1 %v/v Triton X-100 and EDTA-free protease inhibitor cocktail (Sigma-Aldrich). The cleared lysate was purified by affinity chromatography on a GSTrap HF column (Cytiva) using an ÄKTA Start (Cytiva) in buffer containing 20 mM HEPES pH 7.5, 300 mM NaCl, 10 %v/v glycerol, 5 mM DTT. OSBP(377 -807) was eluted by using elution buffer containing 20 mM HEPES pH 7.5, 300 mM NaCl, 10 %v/v glycerol, 5 mM DTT and 10 mM reduced glutathione. Proteins were further purified by SEC on a HiLoad 16/600 Superdex 75 pg (Cytiva) using an ÄKTA Explorer (Cytiva) in buffer containing 20 mM HEPES pH 7.5, 150 mM NaCl, 10 %v/v glycerol and 2 mM DTT.
(§8) The ORP domains of human ORP1(534-950) in pET24b(+) and ORP2(49-480) in the pET24b(+) vector including an N-terminal His6-Tag were expressed in E. coli BL21(DE3) in TB medium for approximately 16 h at 18 °C after induction with 0.1 mM IPTG. Cells were collected at 3500 × g for 15 minutes and lysed by sonification in buffer containing 10 mM Tris-HCl pH 8, 300 mM NaCl, 5 % glycerol, 2 mM DTT, 0.1 % Triton X-100 and EDTA-free protease inhibitor cocktail (Sigma-Aldrich). The cleared […]

STARD5 = target: T2, STARD5 (Homo sapiens, UniProt Q9NSY2); assay: Differential scanning fluorimetry (DSF), STARD5; format: binding; conditions: for ΔTm at 10 µM / STARD5 (DSF) ΔTm: single dose, Dose = 10 µM; for Kd: apparent Kd, mean of three experiments run in technical duplicates, read-out: STARD5 Kd,app (DSF); for STARD5 (DSF) ΔTmmax: maximal thermal shift
T2 construct: STARD5(6-213); host or cells: E. coli BL21(DE3)
T2 sequence (Q9NSY2 6-213): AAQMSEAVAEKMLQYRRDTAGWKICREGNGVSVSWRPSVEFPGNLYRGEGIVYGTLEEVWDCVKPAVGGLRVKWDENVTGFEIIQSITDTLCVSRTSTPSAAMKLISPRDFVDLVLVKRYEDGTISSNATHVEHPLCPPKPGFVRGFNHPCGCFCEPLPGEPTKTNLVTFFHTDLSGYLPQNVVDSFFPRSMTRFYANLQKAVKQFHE
Description: as §1, §2, §3, §4, §5, §6, §7, §8

| SMILES | IC50 (ORP2) | inhibition at 10 µM (ORP2) | ΔTm at 10 µM (STARD5) | Kd (STARD5) | STARD5 (DSF) ΔTmmax (STARD5) | ORP2 (FP) inhibition (ORP2) | STARD5 (DSF) ΔTm (STARD5) | ΔTm at 100 µM (STARD5; at 100 μM, read-out: STARD5 ΔTm^max) |
| --- | --- | --- | --- | --- | --- | --- | --- | --- |
| C[C@]12CC[C@@H]3C[C@H]1CC[C@@]21C(=Nc2ccc(Br)cc21)O3 (racemic) [Compound 15b] | 7.14 µM | 29% | 0.5 °C | – | – | – | – | – |
| CC12CCC3CC1CCC21C(=Nc2ccc(N4CCOCC4)cc21)O3 (racemic) [Compound 19a] | > 80 µM | 27% | 1.8 °C | > 30 µM | 3.7 °C | – | – | – |
| CC12CCC3CC1CCC21C(=Nc2ccc(Br)cc21)O3 (single isomer, unassigned; (+)) [(+)-15b] | > 80 µM | 35% | -0.0628 °C | > 100 µM | 1.1 °C | – | – | – |
| CC12CCC3CC1CCC21C(=Nc2ccc(N4CCOCC4)cc21)O3 (single isomer, unassigned; (+)) [(+)-19a] | > 80 µM | – | – | > 100 µM | 1.7 °C | 7% | 0.32 °C | – |
| CC12CCC3CC1CCC21C(=Nc2ccc(N4CCOCC4)cc21)O3 (single isomer, unassigned; (-)) [(−)-19a] | > 50 µM | – | – | > 30 µM | 5.2 °C | 32% | 3.3 °C | 4.7 °C |
| C[C@@]12CC[C@H]3C[C@@H]1CC[C@]21C(=Nc2ccc(Br)cc21)O3 [(−)-15b] | 5.85 µM | 60% | 0.4 °C | > 100 µM | 1.3 °C | – | – | – |
| CC(C)Oc1ccc(C(=O)Nc2nc3c(s2)CN(C(=O)OC(C)(C)C)CC3)cc1 [Autogramin-2, reference compound] | 6.83 µM | – | – | > 30 µM | – | 18% | 0.211 °C | – |
| Cc1c2c(nc3ccccc13)[C@@]1(C)CC[C@@H](O)C[C@H]1CC2 [Compound 2a] | – | 43.5% | 0.4 °C | – | – | – | – | – |
| C[C@]12CC[C@@H](O)C[C@H]1CCc1c2nc2ccccc2c1-c1ccccc1 [Compound 2b] | – | – | – | – | – | 14% | 0.0879 °C | – |
| Cc1c2c(nc3cc(Br)ccc13)[C@@]1(C)CC[C@@H](O)C[C@H]1CC2 [Compound 2c] | – | – | – | – | – | 53% | 0.543 °C | – |
| C[C@]12CC[C@@H](O)C[C@H]1CCc1c2nc2ccccc2c1-c1ccc(F)cc1 [Compound 2d] | – | 14% | 0.0936 °C | – | – | – | – | – |
| C[C@]12CC[C@@H](O)C[C@H]1CCc1c2nc2ccc(Cl)cc2c1-c1ccccc1 [Compound 2e] | – | – | – | – | – | 15% | 0.221 °C | – |
| C[C@]12CC[C@@H](O)C[C@H]1CCc1c2[nH]c2ncccc12 [Compound 3] | – | 2% | 0.149 °C | – | – | – | – | – |
| C[C@]12CC[C@@H](O)C[C@H]1CCC[C@]21Nc2ccccc2-n2cccc21 [Compound 4] | – | 12% | 0.138 °C | – | – | 25% | 0.276 °C | – |
| C[C@]12CC[C@@H](O)C[C@H]1CCC[C@]21NC(=O)c2ccccc2N1 [Compound 5a] | – | 6% | 0.0253 °C | – | – | 11% | 0.0773 °C | – |
| C[C@]12CC[C@@H](O)C[C@H]1CCC[C@]21NC(=O)c2ccc(F)cc2N1 [Compound 5b] | – | 7% | -0.128 °C | – | – | 2% | 0.158 °C | – |
| COc1ccc2c(c1)C(=O)N[C@]1(CCC[C@@H]3C[C@H](O)CC[C@@]31C)N2 [Compound 5c] | – | 24% | 0.117 °C | – | – | 12% | 0.0259 °C | – |
| C[C@]12CC[C@@H](O)C[C@H]1CCc1nc3ccccc3nc12 [Compound 7a] | – | 55% | 0.5 °C | – | – | – | – | – |
| Cc1cc2nc3c(nc2cc1C)[C@@]1(C)CC[C@@H](O)C[C@H]1CC3 [Compound 7b] | – | 12% | 0.328 °C | – | – | – | – | – |
| C[C@]12CC[C@@H](O)C[C@H]1CCc1nc3cc(F)c(F)cc3nc12 [Compound 7c] | – | – | – | – | – | 9% | 0.3 °C | – |
| C[C@]12CC[C@@H](O)C[C@H]1CCc1nc3cc(Cl)c(Cl)cc3nc12 [Compound 7d] | – | – | – | – | – | 12% | -0.24 °C | – |
| C[C@]12CC[C@@H](O)C[C@H]1CCc1nc3cc(Br)c(Br)cc3nc12 [Compound 7e] | – | – | – | – | – | 27% | 0.245 °C | – |
| C[C@]12CC[C@@H](O)C[C@H]1CCc1sc(N)nc12 [Compound 8a] | – | 11% | 0.0867 °C | – | – | – | – | – |
| Cc1nc2c(s1)CC[C@@H]1C[C@H](O)CC[C@]21C [Compound 8b] | – | – | – | – | – | 13% | 0.175 °C | – |
| C[C@]12CC[C@@H](O)C[C@H]1CCc1sc(-c3cccnc3)nc12 [Compound 8c] | – | – | – | – | – | 17% | 0.15 °C | – |
| COc1ccc(-c2nc3c(s2)CC[C@@H]2C[C@H](O)CC[C@]32C)cc1 [Compound 8d] | – | 38% | 0.146 °C | – | – | – | – | – |
| C[C@]12CC[C@@H](O)C[C@H]1CCc1sc(-c3ccc(F)cc3)nc12 [Compound 8e] | – | – | – | – | – | 25% | 0.216 °C | – |
| C[C@]12CC[C@@H](O)C[C@H]1CCc1[nH]c(-c3ccccc3)nc12 [Compound 9] | – | 3.5% | 0.168 °C | – | – | – | – | – |
| C[C@]12CC[C@@H](O)C[C@H]1CCc1c2[nH]c2ccccc12 [Compound 10a] | – | – | – | – | – | 34% | 0.373 °C | – |
